Assay [1] relates to CHO cells expressing an nanobody. The experiment in a line: Fed batch culture of CHO cells expressing a nanobody in shake flasks, FeSO4 addition on day 6. Format: cell-based, Chinese hamster. The conditions noted are these: 1 mM iron added on day 6. As to the method: CHO cells expressing an nanobody were grown by fed batch culture in shake flasks. Cells were initially cultured in 7% CO2 incubator at 37° C. for 0-4 days and shifted to 31° C. after day 4. FeSO4 was added on day 6 to effect a concentration of 1 mM of iron in the cell culture medium. Cells were subjected to cell density, viability, titer, lactate level and Qp analysis at various time points throughout the cell culture process as described in Example 1.

For assay [2], the system named is cell line producing a monoclonal antibody (clone 2.8). The assay is described as follows: Fed batch culture of clone 2.8 in shake flasks, Fe addition on day 0 or day 9. Format: cell-based. The conditions noted are these: 600 μM added on day 0. As to the method: This experiment is designed to test whether a high concentration of Fe added at day 0 would have an advantageous effect. […] Seed density was 1.5×10^6 cells/mL. The cells were cultured for 14 days. The basal medium was a chemically defined basal medium supplemented with amino acids including 4 mM glutamine. Feed medium is a chemically defined concentrated feed medium. Fe-citrate or FeSO4 was added on day 0 or day 9 to effect a concentration of 600 μM of iron in the cell culture medium. Cells were subjected to cell density, viability, titer and Qp analysis at various time points throughout the cell culture process as described in previous examples.

One may read the viability as the share of living cells, or the viability signal relative to a control. A high value points to less harm to the cells.

`O=S(=O)([O-])[O-].[Fe+2]` [FeSO4] yielded a Qp in assay [1] (control 10 μg/e6/day, FIG. 9) of 20 μg/e6/day. The compound further came in with a lactate level in assay [1] (control increased to 2.24 g/L on day 15, FIG. 10) of about 0 g/L. In assay [1] (read on day 15, control 1.5 g/L, FIG. 8), this compound yielded a titer of 3.2 g/L. In assay [1] (read on day 15, control 70%, FIG. 7), this compound had a viability of 96%.
For ferric citrate [Fe-citrate], the cell growth result in assay [2] (FIG. 11) is “increased cell growth at early stage”. In addition, the “viability on day 14” value in assay [2] (control 74-80%, FIG. 12) was “about 75%”. Besides, the Qp entry in assay [2] (throughout the culture, FIG. 13) was “lower than all other conditions”.

Source of the values: patent US20140322758A1, “ADDITION OF IRON TO IMPROVE CELL CULTURE” (Pfizer Inc., priority 2011, published 2014).
